Assay results as given in US4873263A, “Rectally absorbable form of L-dopa” (priority 1988, dated 1989).
Where a name gives a salt, the structure may show the parent alone. Read-outs that look alike come from different tables or passages of the source.

Experiments:
[1] = L-dopa bioavailability in Beagle dogs after rectal administration, oral carbidopa pretreatment (Example 3); type: in vivo; settings: in words
Experimental: Aqueous formulations (pH 5.5, 0.1% ascorbic acid, 0.1 ml) containing […] L-dopa ethyl ester HCl (equivalent to 50 mg L-dopa) were prepared for administration to Beagle dogs. Each dog received the rectal formulation following a 3-day pretreatment with oral carbidopa (25 mg b.i.d.). Blood samples were collected for 360 minutes and plasma L-dopa levels determined by HPLC.

[2] = rat, in vivo
Experimental: Aqueous microenemas (250 μl) containing either 2.0 mg L-dopa or 2.66 mg L-dopa ethyl ester HCl (equivalent to 2.0 mg L-dopa) were prepared. The solutions were adjusted to pH 5.5 and contained 0.02% ascorbic acid to prevent oxidation. Blood samples were collected following rectal administration to anesthetized rats, and plasma L-dopa determined by HPLC.

[3] = Rat plasma L-dopa and bioavailability after rectal microenema with carbidopa (Example 2); set-up: species or system rats; settings: in vivo
Experimental: The experimental conditions of Example 1 were repeated, except that each formulation also contained 0.5 mg carbidopa, a decarboxylase inhibitor which is included to decrease L-dopa metabolism.

[4] = dog, in vivo; cited from earlier work

CCOC(=O)[C@@H](N)Cc1ccc(O)c(O)c1 [L-dopa ethyl ester HCl]
plasma drug levels [1]: significant increase in plasma drug levels
Percent L-dopa Bioavailability [2]: 12 ± 2.4%
plasma levels of L-dopa [2]: significantly higher plasma levels of L-dopa
Percent L-dopa Bioavailability [3]: 62 ± 32.7%
absorption by the rectal route in dogs [4]: not significantly absorbed in dogs
